This test concerns the target T1, β-1,4-galactosyltransferase I (β4GalT) from bovine milk (Bos taurus, UniProt P08037).
T1 construct: gene B4GALT1
T1 sequence (P08037 1-402): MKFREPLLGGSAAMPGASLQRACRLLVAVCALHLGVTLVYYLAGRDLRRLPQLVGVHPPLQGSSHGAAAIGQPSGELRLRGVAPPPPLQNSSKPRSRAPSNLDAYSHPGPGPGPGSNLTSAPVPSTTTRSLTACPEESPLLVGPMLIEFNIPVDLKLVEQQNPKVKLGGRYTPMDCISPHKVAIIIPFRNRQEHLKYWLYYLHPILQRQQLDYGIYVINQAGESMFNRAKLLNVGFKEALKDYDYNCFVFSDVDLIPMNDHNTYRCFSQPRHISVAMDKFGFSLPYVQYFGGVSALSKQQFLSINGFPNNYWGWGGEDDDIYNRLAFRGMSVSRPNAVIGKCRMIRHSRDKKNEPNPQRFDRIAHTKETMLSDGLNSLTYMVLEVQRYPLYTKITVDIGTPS
The experiment in a line: RP-HPLC enzymatic assay with fluorescence detection: galactose transfer from UDP-Gal to esculine. It counts as biochemical.

SMILES strings stand for the structures.

In turn, `O=C(CCOCn1ccc(=O)[nH]c1=O)Nc1ccc(S[C@@H]2O[C@H](CO)[C@@H](O)[C@H](O)[C@H]2O)nc1` [compound 64, Glycoconjugate 64] gave an IC50 of 710 µM.

These data come from publication PMC6222857, “Synthesis and Preliminary Evaluation of Biological Activity of Glycoconjugates Analogues of Acyclic Uridine Derivatives” (Molecules : A Journal of Synthetic Chemistry and Natural …, 2018).
